# According to patent publication US6989396B2, “Tropane alkaloid multidrug resistance inhibitors from Erythroxylum pervillei and use of the same” (The Board of Trustees of the University of Illinois, priority 2001, dated 2006):
# Read-outs that look alike come from different tables or passages of the source. Marks after values point to notes of the source that are not given here.
# What was measured:
# KB-V1, drug resistant KB = experiment: In vitro cytotoxicity, human tumor panel: KB-V1 with or without vinblastine; format: cell-based
# Procedure: (§1) Cytotoxicity assay. Compounds 1–9 were evaluated for cytotoxic activity against a panel of human cancer cell lines, including KB-V1 in the presence and absence of VLB, according to an established protocol (68).
# [1] = tested on: SKOV3 (ovarian adenocarcinoma); experiment: Cytotoxicity in ovarian adenocarcinoma SKOV3 (pGp -ve); format: cell-based; conditions: Homo sapiens, SK-OV-3, read-out: IC50 SKOV3 (pGp − ve)
# Procedure: as §1
# Lu1, lung cancer = experiment: In vitro cytotoxicity, human tumor panel: Lu1; format: cell-based; conditions: Homo sapiens, read-out: ED50 Lu1
# Procedure: as §1
# KB-V1 cells [2] = experiment: Reversal of MDR, cell survival assay: KB-V1 with or without vinblastine; format: cell-based, human; conditions: for IC50: Homo sapiens, KB-V1, 72 hours
# Procedure: One part of a natural product drug discovery program involves monitoring the potential of plant extracts to reverse multiple drug resistance. […] To investigate the potential of plant extracts or compounds to reverse multidrug-resistance, KB-V1 cells are treated with different concentrations of plant extracts or compounds in the presence (1 μg/ml) or absence of vinblastine.
# (§2) Cytotoxic potential. The cytotoxic potential of test substances with KB-3, KB-V1 and KB-8-5 cells was determined as described previously (24). Briefly, various concentrations of test compounds (dissolved in 10 μl of 10% DMSO) were transferred to 96-well plates, and 190 μl aliquots of cell suspensions (5×10^4 cells/ml) were added to each well. The plates then were incubated for 72 hours at 37° C. (100% humidity with a 5% CO2 atmosphere in air), and 100 μl of cold 20% aqueous trichloroacetic acid were added to the growth medium in each well to fix the cells. The cultures were incubated at 4° C. for 30 minutes, washed, air-dried, stained with sulforhodamine B solution, and washed with 1% acetic acid. […] In each case, a zero-day control was performed by adding an equivalent number of cells to several wells and incubating at 37° C. for 30 minutes, and processing as described above. Optical density values obtained with the zero-day control were subtracted, and cell survival, relative to control (solvent-treated) cultures, was calculated. The cytotoxic potential of the compounds with CEM and CEM/VLB100 cells was determined as described by Beck et al. (30). Cells were grown in 24-well plates at a density of 5–6×10^5 cells/ml. At 48 hours, the cell number was determined using a Coulter Counter, with a channelizer to distinguish cells from debris.
# BC1, breast cancer = experiment: In vitro cytotoxicity, human tumor panel: BC1; format: cell-based; conditions: Homo sapiens, read-out: ED50 BCI
# Procedure: as §1
# [3] = tested on: SKVLB (ovarian adenocarcinoma, multidrug resistance); experiment: Multidrug resistance inhibition in SKVLB (pGp +ve); format: cell-based, human
# CEM/VLB100 cells = experiment: MDR reversal in drug-resistant human leukemia CEM/VLB100 cells; format: cell-based; conditions: for IC50: Homo sapiens
# Procedure: as §2
# Col2, colon cancer = experiment: In vitro cytotoxicity, human tumor panel: Col2; format: cell-based; conditions: Homo sapiens, read-out: ED50 Col2
# Procedure: as §1
# KB-V1 cells [4] = experiment: [3H]Vinblastine accumulation with intact cells; format: cell-based, human; conditions: modulator 0–40 μM
# Procedure: [^3H]Vinblastine accumulation with intact cells. Measurement of the accumulation of [^3H]vinblastine in cell monolayers was performed by the method of Fojo et al. (34) with some modifications. Studies were performed with 24-well plates. In preparing the cell monolayers, 2 ml of a cell suspension containing 2.5×10^5 cells per ml of incubation medium (DMEM with 10% calf serum) were added to each well. Control wells contained 2 ml of assay medium. […] Monolayers were washed three times with cold PBS, dried by inversion, and the cells were treated with trypsin. Cell suspensions were then transferred to vials containing 3 ml of scintillation solution (CytoScint™, ICN), mixed vigorously, and counted. The quantity of [^3H]vinblastine associated with incubations containing cells was corrected by subtracting the counts associated with incubations not containing cells.
# KB-8-5 cells = experiment: In vivo hollow fiber test: KB-8-5; set-up: species or system NCr nu/nu mice
# Procedure: In vivo hollow fiber test. […] Confluent monolayers of KB-3, KB-V1 or KB-8-5 cells were harvested, collected by centrifugation and resuspended in conditioned medium at a concentration of 7.5×10^5 cells/ml.
# Test compounds were administrated once daily by intraperitoneal injection from day 3–6 after implantation. Body weights were measure daily.
# After incubating at 37° C. for 4 hours, the culture medium was aspirated and the samples were washed twice with normal saline containing 2.5% protamine sulfate solution by overnight incubation at 4° C. […] The formazan was extracted from each sample with DMSO (250 μl/well) for 4 hours at room temperature on a rotation platform.
# [5] = vinblastine 1 μg/ml, listed as pervilleine A
# [6] = pervilleine A 5 μM, verapamil 10 μM
# [7] = summation of single-agent inhibitions
smiles,measurement,setting,value
"COc1cc(C=CC(=O)O[C@H]2[C@@H](O)[C@@H]3C[C@H](OC(=O)c4cc(OC)c(OC)c(OC)c4)C[C@H]2N3C)cc(OC)c1OC [Compound 3, 3α-(3,4,5-trimethoxybenzoyloxy)-6β-(3,4,5-trimethoxycinnamoyloxy)-7β-hydroxytropane]",IC50,"KB-V1, drug resistant KB; Homo sapiens, KB-V1, drug-resistant KB assessed in the absence of vinblastine, read-out: ED50 KB-V1−",> 20 µg/mL
same,ED50 KB-V1+,"KB-V1, drug resistant KB; drug resistant KB assessed in presence of vinblastine (1 μg/mL)",0.3 µg/mL
same,IC50,[1],> 10000 nM
same,IC50,"Lu1, lung cancer",> 20 µg/mL
same,IC50,"KB-V1 cells [2]; absence of vinblastine, read-out: IC50 KB-V1 (−)",> 34000 nM
same,IC50,"KB-V1 cells [2]; presence of vinblastine (1 μg/ml), read-out: IC50 KB-V1 (+)",360 nM
same,Ratio of IC50 values KB-3/[KB-V1 (+)],"KB-V1 cells [2]; vinblastine 1 μg/ml, listed as Pervilleine A",66.6^d
same,Ratio of IC50 values KB-3/[KB-V1 (+)],KB-V1 cells [2]; [5],66.6
same,Ratio of IC50 values [KB-V1 (−)]/[KB-V1 (+)],KB-V1 cells [2]; [5],> 95
same,IC50,"BC1, breast cancer",> 20 µg/mL
same,IC50,"[3]; Homo sapiens, read-out: IC50 BSKVLB (pGp + ve)",> 10000 nM
same,IC50,"[3]; read-out: IC50 SKVLB (pGp + ve), addition of adriamycin, Addition of 1 μm adriamycin",650 nM
same,IC50,"CEM/VLB100 cells; CEM/VLB100, 48 h, read-out: IC50 Modulator only",> 15000 nM
same,IC50,"CEM/VLB100 cells; CEM/VLB100, read-out: IC50 (Modulator + Daunorubicin)",65 nM
same,IC50,"CEM/VLB100 cells; CEM/VLB100, read-out: IC50 (Modulator + Vinblastine)",20 nM
same,Ratio of IC50 values Daunorubicin/(Modulator + Daunorubicin),CEM/VLB100 cells; [6],15^c
same,Ratio of IC50 values Modulator/(Modulator + Daunorubicin),CEM/VLB100 cells; [6],>231^c
same,Ratio of IC50 values Modulator/(Modulator + Vinblastine),CEM/VLB100 cells; [6],>750^c
same,Ratio of IC50 values Vinblastine/(Modulator + Vinblastine),CEM/VLB100 cells; [6],250^c
same,IC50,"Col2, colon cancer",> 20 µg/mL
same,fold increase of [3H]vinblastine accumulation,KB-V1 cells [4],about 27 fold
same,"Calculated inhibition (vinblastine + reversing agent as single agents), KB-8-5, i.p. site",KB-8-5 cells; [7],4.5%
same,"Calculated inhibition (vinblastine + reversing agent as single agents), KB-8-5, s.c. site",KB-8-5 cells; [7],4.9%
same,"Observed inhibition from coadministration with vinblastine, KB-8-5, s.c. site",KB-8-5 cells; vinblastine 100 μg/kg + reversing agent 0.136 mmol/kg,28 (P = 0.008) %
same,"Observed inhibition from coadministration with vinblastine, KB-8-5, i.p. site","KB-8-5 cells; vinblastine 100 μg/kg + reversing agent 0.136 mmol/kg, listed as pervilleine A",74.7 (P < 0.0001) %
same,"Growth inhibition, single agent, KB-8-5, s.c. site","KB-8-5 cells; vinblastine 100 μg/kg, reversing agents 0.136 mmol/kg",2.6%
same,"Growth inhibition, single agent, KB-8-5, i.p. site","KB-8-5 cells; vinblastine 100 μg/kg, reversing agents 0.136 mmol/kg, i.p. injection once daily days 3–6",3.3%
